Assay results as given in patent US7629346B2, “Pyrazinecarboxamide derivatives as CB1 antagonists” (Hoffmann-La Roche Inc., priority 2006, dated 2009).
Read-outs that look alike come from different tables or passages of the source.

Tests used:
[1] = target: T1, human cannabis CB1 receptor (Homo sapiens, UniProt P21554); experiment: Affinity for cannabinoid CB1 receptors, [3H]-CP-55,940 radioligand binding on HEK cell membranes
T1 construct: expressed in transfected cells; host or cells: human embryonic kidney (HEK) cells, Semliki Forest Virus system, membrane preparation
T1 sequence (P21554 whole entry): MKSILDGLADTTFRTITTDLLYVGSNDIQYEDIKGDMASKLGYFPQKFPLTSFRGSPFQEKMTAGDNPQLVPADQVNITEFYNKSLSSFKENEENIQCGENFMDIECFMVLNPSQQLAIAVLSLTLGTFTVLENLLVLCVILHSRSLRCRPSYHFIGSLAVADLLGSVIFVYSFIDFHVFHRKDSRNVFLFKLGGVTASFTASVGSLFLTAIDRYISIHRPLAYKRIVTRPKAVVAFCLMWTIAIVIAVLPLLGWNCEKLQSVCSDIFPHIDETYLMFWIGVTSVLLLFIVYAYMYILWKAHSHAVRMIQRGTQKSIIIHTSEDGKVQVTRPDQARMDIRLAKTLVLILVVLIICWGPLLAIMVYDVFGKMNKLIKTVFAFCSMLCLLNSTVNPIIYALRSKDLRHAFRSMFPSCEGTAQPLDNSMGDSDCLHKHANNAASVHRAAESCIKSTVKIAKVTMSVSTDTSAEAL
Procedure: The affinity of the compounds of the invention for cannabinoid CB1 receptors was determined using membrane preparations of human embryonic kidney (HEK) cells in which the human cannabis CB1 receptor is transiently transfected using the Semliki Forest Virus system in conjunction with [3H]-CP-55,940 as radioligand. After incubation of a freshly prepared cell membrane preparation with the [3H]-ligand, with or without addition of compounds of the invention, separation of bound and free ligand was performed by filtration over glassfiber filters. Radioactivity on the filter was measured by liquid scintillation counting.
The compounds of formula (I) show an excellent affinity for the CB1 receptor, determined with the experimental conditions described in Devane et. al. Mol. Pharmacol. 34 (1988) 605-613.

[2] = wild-type versus CB1 knockout mice; cited from earlier work
[3] = 10 and 20 mg daily; cited from earlier work
[4] = several phase III studies; cited from earlier work
[5] = phase III trial STRATUS-US; cited from earlier work
[6] = [3H]-CP-55,940 as radioligand, membranes of HEK cells transfected with human CB1 receptor, read-out: Ki

`CN(c1ncc(C(=O)N[C@@H]2CCCC[C@H]2O)nc1-c1ccc(OC(F)(F)F)cc1)C1CC1` [Example 21, 5-(Cyclopropyl-methyl-amino)-6-(4-trifluoromethoxy-phenyl)-pyrazine-2-carboxylic acid ((1R,2R)-2-hydroxy-cyclohexyl)-amide] gave a Ki [1, 6] of 35.4 nM.
`COCCOc1ncc(C(=O)NC[C@](C)(O)C2CC2)nc1-c1ccc(Cl)cc1` [Example 27, 6-(4-Chloro-phenyl)-5-(2-methoxy-ethoxy)-pyrazine-2-carboxylic acid ((R)-2-cyclopropyl-2-hydroxy-propyl)-amide] showed a Ki [1] of 47.5 nM.
Work on `C[C@](O)(CNC(=O)c1cnc(OCc2ncccn2)c(-c2ccc(F)cc2)n1)C1CC1` [Example 69, 6-(4-Fluoro-phenyl)-5-(pyrimidin-2-ylmethoxy)-pyrazine-2-carboxylic acid ((R)-2-cyclopropyl-2-hydroxy-propyl)-amide] yielded a Ki [1, 6] of 12.2 nM.
For `Cc1c(C(=O)NN2CCCCC2)nn(-c2ccc(Cl)cc2Cl)c1-c1ccc(Cl)cc1` [SR 141716, Rimonabant], the food intake [2] is listed as “reduces food intake in wild-type but not knockout mice”, the “body weight compared to placebo” value [3] is listed as “significantly reduced body weight” and the “body weight, waist circumference and metabolic parameters (plasma HDL, triglycerides and insulin sensitivity)” value [4] is listed as “reduced body weight, waist circumference and improved metabolic parameters”. For the same compound, the “efficacy for smoking cessation” value [5] was “has shown efficacy”.
